From ChEMBL document CHEMBL3817791, “Discovery of 4-(4-aminopyrazolo[1,5-a][1,3,5]triazin-8-yl)benzamides as novel, highly potent and selective, orally bioavailable inhibitors of Tyrosine Threonine Kinase, TTK” (Bioorg Med Chem Lett, 2016)

Legend:
[1] = Antiproliferative activity against human OVCAR3 cells; format: functional; conditions: OVCAR-3
[2] = Antiproliferative activity against human HCT116 cells; format: functional; conditions: HCT-116
[3] = molecular target: T1, Dual specificity protein kinase TTK (Homo sapiens, UniProt P33981); test: Inhibition of TTK (unknown origin)
T1 sequence (P33981 whole entry): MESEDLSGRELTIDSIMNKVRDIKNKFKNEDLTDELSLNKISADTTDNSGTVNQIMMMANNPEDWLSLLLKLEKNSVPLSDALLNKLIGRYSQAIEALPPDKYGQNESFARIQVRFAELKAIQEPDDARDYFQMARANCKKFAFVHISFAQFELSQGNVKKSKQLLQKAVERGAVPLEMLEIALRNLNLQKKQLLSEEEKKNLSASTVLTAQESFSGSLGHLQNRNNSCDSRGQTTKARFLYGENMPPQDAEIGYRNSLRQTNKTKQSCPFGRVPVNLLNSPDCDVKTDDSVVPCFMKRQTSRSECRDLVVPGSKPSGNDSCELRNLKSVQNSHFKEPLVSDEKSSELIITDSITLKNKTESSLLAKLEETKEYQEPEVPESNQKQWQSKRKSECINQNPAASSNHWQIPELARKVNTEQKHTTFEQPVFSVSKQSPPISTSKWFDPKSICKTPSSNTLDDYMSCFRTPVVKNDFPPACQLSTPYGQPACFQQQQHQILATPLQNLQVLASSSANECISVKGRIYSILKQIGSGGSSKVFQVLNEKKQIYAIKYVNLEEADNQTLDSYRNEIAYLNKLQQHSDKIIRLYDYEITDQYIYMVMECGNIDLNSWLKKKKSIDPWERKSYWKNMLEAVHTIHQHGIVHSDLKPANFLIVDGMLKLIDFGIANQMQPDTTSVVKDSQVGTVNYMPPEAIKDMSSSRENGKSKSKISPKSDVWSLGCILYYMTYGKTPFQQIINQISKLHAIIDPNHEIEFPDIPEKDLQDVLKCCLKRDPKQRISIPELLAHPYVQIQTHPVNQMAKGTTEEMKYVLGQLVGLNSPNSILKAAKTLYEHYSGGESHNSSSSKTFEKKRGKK

MDA-MB-231 = test: Antiproliferative activity against human MDA-MB-231 cells; format: functional
Cytochrome P450 3A4 = Cytochrome P450 3A4 (Homo sapiens, UniProt P08684); test: Inhibition of CYP3A4 (unknown origin); format: ADME
[4] = Antiproliferative activity against human PA1 cells; format: functional; conditions: PA-1
HT-29 = test: Antiproliferative activity against human HT-29 cells; format: functional
[5] = Half life in mouse microsomes; format: ADME, Microsome
MDA-MB-468 = test: Antiproliferative activity against human MDA-MB-468 cells; format: functional
[6] = Half life in rat microsomes; format: ADME, Microsome
[7] = Half life in human microsomes; format: ADME, Microsome
[8] = molecular target: Rho-associated protein kinase 2 (Homo sapiens) (UniProt O75116); test: Inhibition of recombinant human N-terminal His6-tagged ROCK2 (11 to 552 residues) expressed in baculovirus infected Sf21 cells at 1 uM by radiometric assay relative to control
[9] = Cmax in mouse at 10 mg/kg, po; format: ADME, organism-based; parameters: dose 10 mg/kg, route oral; conditions: in vivo
[10] = AUC in mouse at 10 mg/kg, po; format: ADME, organism-based; conditions: in vivo
[11] = substrate: Cc1cc(-c2cnn3c(NCC4CCOCC4)nc(Oc4ccccc4)nc23)ccc1C(=O)NC1CC1; conditions: Homo sapiens
Description: Inhibition of TTK (unknown origin) assessed as substrate Km(app) at 7.5 nM by double reciprocal plot analysis (Rvb = 8.4 uM)

[12] = substrate: Cc1cc(-c2cnn3c(NCC4CCOCC4)nc(Oc4ccccc4)nc23)ccc1C(=O)NC1CC1; conditions: Homo sapiens; remark: listed apart in the source
Description: Inhibition of TTK (unknown origin) assessed as substrate Km(app) at 4.5 nM by double reciprocal plot analysis (Rvb = 8.4 uM)

[13] = substrate: Cc1cc(-c2cnn3c(NCC4CCOCC4)nc(Oc4ccccc4)nc23)ccc1C(=O)NC1CC1; conditions: Homo sapiens; remark: listed apart in the source
Description: Inhibition of TTK (unknown origin) assessed as substrate Km(app) at 1.5 nM by double reciprocal plot analysis (Rvb = 8.4 uM)

Cytochrome P450 3A4, sequence (P08684 whole entry): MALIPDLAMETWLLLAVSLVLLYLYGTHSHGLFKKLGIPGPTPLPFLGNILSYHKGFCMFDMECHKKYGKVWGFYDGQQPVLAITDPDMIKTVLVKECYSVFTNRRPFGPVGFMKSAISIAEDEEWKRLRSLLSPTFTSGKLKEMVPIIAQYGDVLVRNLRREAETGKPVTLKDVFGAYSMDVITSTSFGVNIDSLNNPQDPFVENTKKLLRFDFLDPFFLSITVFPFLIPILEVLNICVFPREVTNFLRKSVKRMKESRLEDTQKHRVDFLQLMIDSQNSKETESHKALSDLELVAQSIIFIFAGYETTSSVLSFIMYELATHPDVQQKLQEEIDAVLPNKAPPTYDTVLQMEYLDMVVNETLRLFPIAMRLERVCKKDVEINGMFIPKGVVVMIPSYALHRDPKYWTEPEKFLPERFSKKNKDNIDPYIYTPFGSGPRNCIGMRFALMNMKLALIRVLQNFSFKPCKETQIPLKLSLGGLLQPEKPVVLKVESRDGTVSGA
Rho-associated protein kinase 2 (Homo sapiens), sequence (O75116 whole entry, looked up, the tested form may be a part): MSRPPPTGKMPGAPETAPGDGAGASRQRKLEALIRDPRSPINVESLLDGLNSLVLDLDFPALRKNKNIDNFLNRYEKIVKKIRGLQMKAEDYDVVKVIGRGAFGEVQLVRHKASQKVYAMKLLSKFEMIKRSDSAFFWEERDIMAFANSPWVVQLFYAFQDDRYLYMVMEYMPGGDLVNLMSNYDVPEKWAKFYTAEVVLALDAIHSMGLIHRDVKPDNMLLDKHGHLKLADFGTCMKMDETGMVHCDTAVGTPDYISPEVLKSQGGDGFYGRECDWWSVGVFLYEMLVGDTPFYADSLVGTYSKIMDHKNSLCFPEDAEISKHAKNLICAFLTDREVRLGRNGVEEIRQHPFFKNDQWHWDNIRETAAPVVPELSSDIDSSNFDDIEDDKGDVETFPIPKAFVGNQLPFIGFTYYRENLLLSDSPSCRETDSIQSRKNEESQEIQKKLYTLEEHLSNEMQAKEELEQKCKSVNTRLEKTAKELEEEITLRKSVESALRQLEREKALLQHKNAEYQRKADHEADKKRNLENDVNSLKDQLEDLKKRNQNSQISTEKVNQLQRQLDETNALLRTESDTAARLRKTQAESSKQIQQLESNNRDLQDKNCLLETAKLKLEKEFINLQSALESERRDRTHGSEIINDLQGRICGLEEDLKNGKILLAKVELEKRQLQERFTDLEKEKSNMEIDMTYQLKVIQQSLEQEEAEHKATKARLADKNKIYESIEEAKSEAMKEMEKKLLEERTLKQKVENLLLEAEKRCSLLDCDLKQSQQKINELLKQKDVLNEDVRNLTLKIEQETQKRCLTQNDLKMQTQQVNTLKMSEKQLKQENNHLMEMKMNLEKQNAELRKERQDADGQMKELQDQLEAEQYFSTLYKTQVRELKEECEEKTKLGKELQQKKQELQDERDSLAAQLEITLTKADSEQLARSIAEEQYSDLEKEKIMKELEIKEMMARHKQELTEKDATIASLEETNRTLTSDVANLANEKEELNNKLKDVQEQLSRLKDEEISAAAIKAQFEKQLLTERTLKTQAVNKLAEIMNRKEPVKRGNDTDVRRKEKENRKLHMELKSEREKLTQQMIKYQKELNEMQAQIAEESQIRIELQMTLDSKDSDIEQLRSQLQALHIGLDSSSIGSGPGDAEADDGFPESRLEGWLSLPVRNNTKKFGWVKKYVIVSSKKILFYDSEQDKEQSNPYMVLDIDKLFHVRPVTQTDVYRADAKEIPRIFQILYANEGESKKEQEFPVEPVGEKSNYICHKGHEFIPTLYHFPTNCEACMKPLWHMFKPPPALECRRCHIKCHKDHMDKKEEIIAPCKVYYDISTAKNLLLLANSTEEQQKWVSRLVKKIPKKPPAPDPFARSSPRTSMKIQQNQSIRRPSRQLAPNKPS

| Molecule | GI50 [1] [nM] | GI50 [2] [nM] | IC50 [3] [nM] | GI50 (MDA-MB-231) [nM] | also measured |
| --- | --- | --- | --- | --- | --- |
| Cc1cc(-c2cnn3c(NCC4CCOCC4)nc(OC4CCCC4)nc23)ccc1C(=O)NC1CC1 | 590 | 160 | 2.3 | 230 | – |
| CN(c1nc(NCC2CCOCC2)n2ncc(-c3ccc(C(=O)NC4CC4)c(F)c3)c2n1)C1CCCCC1 | – | – | 15 | – | – |
| Cc1cc(-c2cnn3c(NCC4CCOCC4)nc(NC4CCCCC4)nc23)ccc1C(=O)NC1CC1 | 470 | 170 | 2.6 | 270 | – |
| COCCNc1nc(Oc2ccccc2)nc2c(-c3ccc(C(=O)NC4CC4)cc3)cnn12 | – | – | 14 | – | – |
| O=C(NC1CC1)c1ccc(-c2cnn3c(NCC4CCOCC4)nc(Oc4ccccc4)nc23)cc1Cl | 400 | 160 | 1.7 | 230 | – |
| O=C(NC1CC1)c1ccc(-c2cnn3c(NCC4CCOCC4)nc(NC4CCCC4)nc23)cc1 | 1700 | 390 | 10 | 690 | – |
| CC(=O)Nc1cccc(Oc2nc(NCC3CCOCC3)n3ncc(-c4ccc(C(=O)NC5CC5)c(C)c4)c3n2)c1 | 1200 | 1300 | 8.4 | 1600 | – |
| Cc1cc(-c2cnn3c(NCC4CCOCC4)nc(NC4CCCC4)nc23)ccc1C(=O)NC1CC1 | 480 | 130 | – | 170 | IC50 (Cytochrome P450 3A4): 19000 nM; GI50 [4]: 53 nM; GI50 (HT-29): 84 nM; half-life [5]: 14 min; GI50 (MDA-MB-468): 320 nM; half-life [6]: 11 min; half-life [7]: > 60 min |
| Cc1cc(-c2cnn3c(NCC4CCOCC4)nc(Nc4ccccc4)nc23)ccc1C(=O)NC1CC1 | 1700 | 690 | 11 | 1200 | – |
| O=C(NC1CC1)c1ccc(-c2cnn3c(NCCN4CCOCC4)nc(Oc4ccccc4)nc23)cc1 | 410 | 880 | 24 | 960 | – |
| O=C(NC1CC1)c1ccc(-c2cnn3c(NCC4CCOCC4)nc(NC4CCCC4)nc23)cc1F | 1700 | 850 | 7 | 1400 | – |
| Cc1cc(-c2cnn3c(NCC4CCOCC4)nc(NC4CCOCC4)nc23)ccc1C(=O)NC1CC1 | 780 | 280 | 9 | 540 | – |
| CC(C)NC(=O)c1ccc(-c2cnn3c(NCC4CCOCC4)nc(OC4CCCC4)nc23)cc1 | – | – | 230 | – | – |
| Cc1cc(-c2cnn3c(NCCN4CCOCC4)nc(Oc4cccc(F)c4F)nc23)ccc1C(=O)NC1CC1 | 170 | 14 | 2.2 | 40 | GI50 [4]: 17 nM; GI50 (HT-29): 21 nM; GI50 (MDA-MB-468): 150 nM |
| O=C(N[C@@H](c1ccccn1)C1CC1)c1ccc2[nH]nc(-c3ccc(N4C5CCC4CC(O)C5)cc3)c2c1 (stereo not given in full) | – | – | – | – | inhibition [8]: 50% |
| Cc1cc(-c2cnn3c(NCC4CCOCC4)nc(Oc4cccc(F)c4F)nc23)ccc1C(=O)NC1CC1 | 37 | 9 | 0.4 | 12 | Cmax [9]: 1600 ng/mL; AUC [10]: 4000 ng·h/mL; IC50 (Cytochrome P450 3A4): > 20000 nM; half-life [5]: 28 min; half-life [6]: 40 min; half-life [7]: > 60 min |
| O=C(NC1CC1)c1ccc(-c2cnn3c(NCC4CCOCC4)nc(N4CCOCC4)nc23)cc1Cl | 70 | 440 | 32 | 450 | – |
| O=C(NC1CC1)c1ccc(-c2cnn3c(NCC4CCOCC4)nc(Oc4ccccc4)nc23)cc1 | 910 | 200 | 4.9 | 350 | – |
| Cc1cc(-c2cnn3c(NCC4CCOCC4)nc(NC4CCCC4)nc23)ccc1NC(=O)C1CC1 | – | – | 2000 | – | – |
| CC(C)C(=O)Nc1ccc(-c2cnn3c(NCC4CCOCC4)nc(OC4CCCC4)nc23)cc1 | – | – | 1700 | – | – |
| Dual specificity protein kinase TTK (Homo sapiens), P33981 (protein) MESEDLSGRELTIDSIMNKVRDIKNKFKNEDLTDELSLNKISADTTDNSGTVNQIMMMANNPEDWLSLLLKLEKNSVPLSDALLNKLIGRYSQAIEALPPDKYGQNESFARIQVRFAELKAIQEPDDARDYFQMARANCKKFAFVHISFAQFELSQGNVKKSKQLLQKAVERGAVPLEMLEIALRNLNLQKKQLLSEEEKKNLSASTVLTAQESFSGSLGHLQNRNNSCDSRGQTTKARFLYGENMPPQDAEIGYRNSLRQTNKTKQSCPFGRVPVNLLNSPDCDVKTDDSVVPCFMKRQTSRSECRDLVVPGSKPSGNDSCELRNLKSVQNSHFKEPLVSDEKSSELIITDSITLKNKTESSLLAKLEETKEYQEPEVPESNQKQWQSKRKSECINQNPAASSNHWQIPELARKVNTEQKHTTFEQPVFSVSKQSPPISTSKWFDPKSICKTPSSNTLDDYMSCFRTPVVKNDFPPACQLSTPYGQPACFQQQQHQILATPLQNLQVLASSSANECISVKGRIYSILKQIGSGGSSKVFQVLNEKKQIYAIKYVNLEEADNQTLDSYRNEIAYLNKLQQHSDKIIRLYDYEITDQYIYMVMECGNIDLNSWLKKKKSIDPWERKSYWKNMLEAVHTIHQHGIVHSDLKPANFLIVDGMLKLIDFGIANQMQPDTTSVVKDSQVGTVNYMPPEAIKDMSSSRENGKSKSKISPKSDVWSLGCILYYMTYGKTPFQQIINQISKLHAIIDPNHEIEFPDIPEKDLQDVLKCCLKRDPKQRISIPELLAHPYVQIQTHPVNQMAKGTTEEMKYVLGQLVGLNSPNSILKAAKTLYEHYSGGESHNSSSSKTFEKKRGKK | – | – | – | – | Km [11]: 63.4 µM; Km [12]: 39 µM; Km [13]: 17.4 µM |
